Experimental data: the supplement of paper PMC10307832

Columns and labels:
Test in all cases: relative viability (nuclei count vs DMSO), 5 days (fraction); higher = more cells survive
[1] = compound: Cc1ccc(NC(=O)c2ccc(CN3CCN(C)CC3)cc2)cc1Nc1nccc(-c2cccnc2)n1 [Imatinib]
Procedure, shortened: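 In 1536-well plates, lung cancer cell lines rested overnight at 37 °C before five library-drug doses (not always all listed), √10 apart, were pinned onto vehicle-anchored plates. Nuclei were counted with MetaXpress from 4× Hoechst images taken after 5 days without medium change. Viability compares treated-well with vehicle-well nuclei as a median over plates, and plates needed control CV below 25% plus at least one doubling to pass.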

[2] = compound: Cc1ccc(NC(=O)c2ccc(CN3CCN(C)CC3)cc2)cc1Nc1nccc(-c2cccnc2)n1 [Imatinib] + COc1cc2c(Oc3ccc(NC(=O)C4(C(=O)Nc5ccc(F)cc5)CC4)cc3F)ccnc2cc1OCCCN1CCOCC1 [Foretinib] (partner 0.25 µM)
Procedure, shortened: (§1)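 Dosing by pin tool came one day after lung cancer cell lines were seeded in 1536-well plates, using either one drug or a fixed anchor-drug dose plus five library-drug doses (not always all listed) in √10 steps. After 5 days, nuclei were counted on 4× images. Relative viability is treated-well nuclei count divided by vehicle-well nuclei count, and values are medians of duplicate plates.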

[3] = compound: Cc1ccc(NC(=O)c2ccc(CN3CCN(C)CC3)cc2)cc1Nc1nccc(-c2cccnc2)n1 [Imatinib] + Nc1nc2[nH]cc(CCc3ccc(C(=O)N[C@@H](CCC(=O)O)C(=O)O)cc3)c2c(=O)[nH]1 [Pemetrexed] (partner 0.2 µM)
Procedure, shortened: as §1

[4] = compound: Cc1ccc(NC(=O)c2ccc(CN3CCN(C)CC3)cc2)cc1Nc1nccc(-c2cccnc2)n1 [Imatinib] + O=C(c1cc(Cc2n[nH]c(=O)c3ccccc23)ccc1F)N1CCN(C(=O)C2CC2)CC1 [Olaparib] (partner 8 µM)
Procedure, shortened: as §1

Cell Line	relative viability ([1]; 0.02 µM)	relative viability ([1]; 0.2 µM)	relative viability ([1]; 0.6325 µM)	relative viability ([1]; 2 µM)	relative viability ([2]; first compound 0.02 µM)	relative viability ([2]; first compound 0.2 µM)	relative viability ([2]; first compound 0.6325 µM)	relative viability ([2]; first compound 2 µM)	relative viability ([3]; first compound 0.02 µM)	relative viability ([3]; first compound 0.06325 µM)	relative viability ([3]; first compound 0.2 µM)	relative viability ([3]; first compound 2 µM)	relative viability ([4]; first compound 0.02 µM)	relative viability ([4]; first compound 0.2 µM)	relative viability ([4]; first compound 0.6325 µM)	relative viability ([4]; first compound 2 µM)	relative viability ([1]; 0.06325 µM)	relative viability ([2]; first compound 0.06325 µM)	relative viability ([3]; first compound 0.6325 µM)	relative viability ([4]; first compound 0.06325 µM)
A-427	1.04	0.989	0.974	0.969	1.13	1	0.946	1.01	1.05	1.08	1.02	0.971	0.797	0.754	0.715	0.748	–	–	–	–
NCI-H661	0.977	0.994	0.969	0.982	1	1.1	0.94	1.02	0.915	1.09	0.93	0.936	0.747	0.853	0.773	0.703	0.962	1.04	0.931	0.94
LC-2-ad	1.04	0.986	0.973	1	0.926	0.886	0.819	0.982	0.265	–	0.298	0.27	0.756	0.751	0.761	0.694	0.715	0.676	0.251	–
PC-3 [JPC-3]	1.07	1.09	1.11	0.972	1.12	1.09	1.05	0.942	1.28	–	–	1.07	1.22	–	1.18	1.08	–	–	1.16	–
NCI-H2228	–	1.33	–	1.08	0.905	0.891	0.886	0.899	0.344	0.389	0.303	0.33	0.597	0.684	0.681	0.542	0.927	–	0.345	1.13
CAL-12T	1.04	1.13	1.05	0.943	1.09	1.1	1.16	1.16	1.35	1.33	1.25	1.28	0.756	0.735	0.634	0.77	0.865	–	1.32	–
